# From US20230339878A1, “SLC26A3 INHIBITORS AND USE THEREOF” (THE REGENTS OF THE UNIVERSITY OF CALIFORNIA, priority 2018, published 2023)
# Entries after “also recorded” stand apart in the source; their conditions may differ.
# Legend:
# TMEM16A = biological target: T1, TMEM16A (Homo sapiens, UniProt Q5XXA6); assay: Selectivity: TMEM16A (ATP-stimulated) YFP assay; format: cell-based; settings: 10 µM
# T1 sequence (Q5XXA6 1-986): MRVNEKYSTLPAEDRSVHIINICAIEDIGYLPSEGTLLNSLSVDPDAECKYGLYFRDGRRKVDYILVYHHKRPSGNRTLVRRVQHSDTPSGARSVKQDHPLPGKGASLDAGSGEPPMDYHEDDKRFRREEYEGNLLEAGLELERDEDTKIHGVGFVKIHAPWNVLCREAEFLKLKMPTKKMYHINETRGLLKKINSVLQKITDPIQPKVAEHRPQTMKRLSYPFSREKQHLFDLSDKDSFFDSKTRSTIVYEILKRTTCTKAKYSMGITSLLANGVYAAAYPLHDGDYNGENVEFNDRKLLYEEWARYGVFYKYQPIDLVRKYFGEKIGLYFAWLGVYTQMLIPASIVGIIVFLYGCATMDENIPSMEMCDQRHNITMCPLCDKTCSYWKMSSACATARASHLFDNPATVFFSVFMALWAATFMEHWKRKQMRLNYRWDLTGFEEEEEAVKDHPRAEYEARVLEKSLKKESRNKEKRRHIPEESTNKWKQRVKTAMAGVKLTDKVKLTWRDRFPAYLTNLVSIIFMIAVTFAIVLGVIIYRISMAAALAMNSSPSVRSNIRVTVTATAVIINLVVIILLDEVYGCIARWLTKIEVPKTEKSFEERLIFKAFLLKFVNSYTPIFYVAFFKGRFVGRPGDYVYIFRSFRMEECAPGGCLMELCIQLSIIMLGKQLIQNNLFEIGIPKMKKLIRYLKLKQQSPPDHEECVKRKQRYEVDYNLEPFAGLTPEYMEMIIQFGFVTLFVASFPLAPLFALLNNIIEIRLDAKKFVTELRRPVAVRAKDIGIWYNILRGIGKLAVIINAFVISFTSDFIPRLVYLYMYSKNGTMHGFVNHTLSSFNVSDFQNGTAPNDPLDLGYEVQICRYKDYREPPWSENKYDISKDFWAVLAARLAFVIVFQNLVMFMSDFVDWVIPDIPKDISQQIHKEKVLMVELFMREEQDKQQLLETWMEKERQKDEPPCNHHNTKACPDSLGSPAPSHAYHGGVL
# Text: (§1) To investigate Compound A1 selectivity, transport assays were done on a panel of SLC26-family homologs, and other relevant epithelial ion transporters and channels. […] In separate studies, to investigate possible action of Compound A1 on multiple ion transporters and channels in a human epithelium, human bronchial epithelial (HBE) cells were studied by short-circuit current, with successive additions of amiloride (to block the epithelial sodium channel ENaC), forskolin, CFTRinh-172 (to block CFTR), and ATP (to activate the Ca^2+-activated chloride channel, CaCC) (FIG. 5C).
# (§2) YFP-based assays of CFTR, pendrin and TMEM16A were as described. HEK cells transfected to express YFP and SLC26A3, slc26a6 or slc26a9 were functionally assayed using a Cl^-/I^- exchange protocol. Assays of Cl^-/HCO3^- exchange were done using BCECF as an intracellular pH indicator as described for pendrin. […]
# (§3) HEK293 cells transfected with pIRES-YFP-slc26a9 were plated in 96-well black-walled, clear-bottom tissue culture plates (Corning Life Sciences, Tewksbury, MA) after coating with FNC Coating Mix (AthenaES, Baltimore, MD). […] Assays of slc26a9-mediated anion exchange were done by initially recording YFP fluorescence prior to addition of 100 µL of NaI-substituted PBS to test wells, with the initial rate of Cl^-/I^- exchange deduced from fluorescence intensity by single exponential regression. […]
# CFTR = biological target: T2, CFTR (Homo sapiens, UniProt P13569); assay: Selectivity: CFTR (forskolin stimulated) YFP assay; format: cell-based; settings: 10 µM
# T2 construct: expressed in transfected cells; host or cells: FRT cells expressing YFP and CFTR
# Text: as §1, §2, §3
# [1] = tested on: cystic fibrosis (CF) mice (ΔF508 homozygous) lacking functional CFTR; assay: Loperamide-induced constipation model in cystic fibrosis mice; format: in vivo; settings: 5 mg/kg oral
# Experimental: Female CD1 mice (age 8-10 weeks) were administered loperamide (0.3 mg/kg, intraperitoneally, Sigma-Aldrich) to produce constipation. Compound A1 (DRAinh-A250) (5 mg/kg, in saline containing vehicle (5% DMSO and 10% Kolliphor HS 15; Sigma-Aldrich)), tenapanor (5 mg/kg, in vehicle), both compounds (5 mg/kg each, in vehicle), or vehicle alone were administered by oral gavage 1 hour before loperamide. After loperamide injection, mice were placed individually in metabolic cages with ad libitum access to food and water. Stool samples were collected for 3 h, and total stool weight and number of fecal pellets were quantified. To measure stool water content, stool samples were dried at 80° C. for 24 h and water content was calculated as [wet weight-dry weight]/wet weight. Similar studies were done in cystic fibrosis (CF) mice (ΔF508 homozygous) lacking functional CFTR.
# T2 sequence (P13569 whole entry, species assumed): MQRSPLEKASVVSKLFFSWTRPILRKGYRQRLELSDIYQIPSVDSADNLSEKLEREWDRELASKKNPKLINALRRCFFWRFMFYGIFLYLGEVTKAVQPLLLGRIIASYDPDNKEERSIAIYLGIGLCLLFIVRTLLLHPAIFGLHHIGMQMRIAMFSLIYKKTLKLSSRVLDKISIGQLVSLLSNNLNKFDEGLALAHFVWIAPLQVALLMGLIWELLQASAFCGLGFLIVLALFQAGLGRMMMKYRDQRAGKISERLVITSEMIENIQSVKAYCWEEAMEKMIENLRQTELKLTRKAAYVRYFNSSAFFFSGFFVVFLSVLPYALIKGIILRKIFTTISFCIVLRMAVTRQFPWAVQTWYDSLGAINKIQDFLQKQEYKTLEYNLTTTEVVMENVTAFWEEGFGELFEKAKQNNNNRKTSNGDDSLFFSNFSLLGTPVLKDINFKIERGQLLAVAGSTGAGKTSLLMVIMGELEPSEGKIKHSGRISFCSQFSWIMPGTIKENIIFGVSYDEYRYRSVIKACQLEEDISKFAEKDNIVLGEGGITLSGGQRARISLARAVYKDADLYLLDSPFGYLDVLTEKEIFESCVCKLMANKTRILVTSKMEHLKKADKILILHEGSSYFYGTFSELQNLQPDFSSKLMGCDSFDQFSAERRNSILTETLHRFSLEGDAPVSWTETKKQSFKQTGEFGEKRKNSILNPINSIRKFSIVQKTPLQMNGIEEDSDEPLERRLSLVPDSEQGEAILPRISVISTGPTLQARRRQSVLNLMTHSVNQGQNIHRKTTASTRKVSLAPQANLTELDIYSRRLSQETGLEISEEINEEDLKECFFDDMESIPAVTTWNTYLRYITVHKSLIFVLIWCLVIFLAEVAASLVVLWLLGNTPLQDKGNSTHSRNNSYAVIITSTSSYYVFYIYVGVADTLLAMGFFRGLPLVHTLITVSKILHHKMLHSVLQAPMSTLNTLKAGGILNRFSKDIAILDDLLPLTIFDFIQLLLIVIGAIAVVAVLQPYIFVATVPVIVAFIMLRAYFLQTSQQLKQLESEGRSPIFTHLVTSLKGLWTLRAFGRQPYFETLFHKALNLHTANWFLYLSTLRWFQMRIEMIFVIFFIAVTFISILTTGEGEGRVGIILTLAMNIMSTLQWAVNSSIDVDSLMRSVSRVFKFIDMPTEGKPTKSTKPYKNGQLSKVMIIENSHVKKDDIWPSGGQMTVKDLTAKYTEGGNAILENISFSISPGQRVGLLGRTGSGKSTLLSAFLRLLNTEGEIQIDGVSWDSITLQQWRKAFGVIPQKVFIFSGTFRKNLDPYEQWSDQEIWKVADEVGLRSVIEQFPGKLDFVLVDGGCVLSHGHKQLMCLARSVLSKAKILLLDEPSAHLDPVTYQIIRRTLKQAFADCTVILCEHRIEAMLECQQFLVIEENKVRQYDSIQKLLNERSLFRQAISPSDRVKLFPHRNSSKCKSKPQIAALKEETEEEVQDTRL
compound,measurement,setting,value
Cc1c(CC(=O)O)c(=O)oc2c(C)c(OCc3cccc(Br)c3)ccc12 [Compound A1],effect on activity of TMEM16A,TMEM16A,did not alter the activity; also recorded: differences not significant
same,effect on activity of CFTR,CFTR,did not alter the activity; also recorded: differences not significant
same,efficacy in loperamide-induced constipation in CF mice,[1],effective in loperamide-treated cystic fibrosis mice; also recorded: reduces loperamide-induced constipation
